Measurements taken from ChEMBL document CHEMBL1795274, “Synthesis and antiviral activity of cyclopropyl-spirocarbocyclic adenosine, (4R,5S,6R,7R)-4-(6-amino-9H-purin-9-yl)-7-(hydroxymethyl)spiro[2.4]heptane-5,6-diol against hepatitis C virus” (Bioorg Med Chem Lett, 2011).
Active and inactive are the calls of the source. No cut-off for these calls is given here.

What was measured:
[1] = system: Hepatitis C virus; test: Antiviral activity against HCV1a infected in human HuH7 cells expressing E2 glycoprotein assessed as inhibition of viral RNA replication after 5 days; assay type: functional, organism-based, Hepacivirus hominis; details: subtype 1a, Huh-7, 120 h
[2] = Cytotoxicity against human HuH7 cells expressing E2 glycoprotein assessed as reduction of rRNA level after 5 days; assay type: cell-based, Huh-7
[3] = Selectivity index, ratio of CC50 for human HuH7 cells to EC50 for HCV 1a; set-up: species or system Huh-7
[4] = system: Hepatitis C virus; test: Antiviral activity against HCV1b infected in human Huh7 cells expressing E2 glycoprotein assessed as inhibition of viral RNA replication after 5 days; assay type: functional, organism-based, Hepacivirus hominis; details: genotype 1b, Huh-7, 120 h
[5] = system: Vaccinia virus; test: Antiviral activity against Vaccinia virus infected in human HuH7 cells assessed as reduction of virus-induced cytopathic-effect; assay type: functional, organism-based; details: Orthopoxvirus vaccinia, Huh-7
[6] = system: Measles morbillivirus; test: Antiviral activity against Measles virus infected in human HuH7 cells assessed as reduction of viral level by neutral red assay; assay type: functional, organism-based; details: Huh-7
[7] = system: unidentified adenovirus; test: Antiviral activity against Adenovirus infected in human HuH7 cells assessed as reduction of viral level by neutral red assay; assay type: functional, organism-based; details: Huh-7
[8] = system: unidentified adenovirus; test: Antiviral activity against Adenovirus infected in human HuH7 cells assessed as reduction of viral level by visual assay; assay type: functional, organism-based; details: Huh-7
[9] = Selectivity index, ratio of CC50 for human HuH7 cells to EC50 for Vaccinia virus; assay type: toxicity, cell-based, Huh-7; details: read-out: Ratio CC50/EC50
[10] = Selectivity index, ratio of CC50 for human HuH7 cells to EC50 for Measles virus by neutral red assay; assay type: toxicity, cell-based, Huh-7; details: read-out: Ratio CC50/EC50
[11] = Selectivity index, ratio of CC50 for human HuH7 cells to EC50 for Measles virus by visual assay; assay type: toxicity, cell-based, Huh-7; details: read-out: Ratio CC50/EC50
[12] = Selectivity index, ratio of CC50 for human HuH7 cells to EC50 for Adenovirus by neutral red assay; assay type: toxicity, cell-based, Huh-7; details: read-out: Ratio CC50/EC50
[13] = Selectivity index, ratio of CC50 for human HuH7 cells to EC50 for Adenovirus by visual assay; assay type: toxicity, cell-based, Huh-7; details: read-out: Ratio CC50/EC50
[14] = Cytotoxicity against human HuH7 cells; assay type: cell-based, Huh-7
[15] = system: Cowpox virus; test: Antiviral activity against Cowpox virus; assay type: functional, organism-based
[16] = system: Hepatitis B virus; test: Antiviral activity against Hepatitis B virus; assay type: functional, organism-based
[17] = system: Human alphaherpesvirus 1; test: Antiviral activity against HSV1; assay type: functional, organism-based
[18] = system: Human alphaherpesvirus 2; test: Antiviral activity against HSV2; assay type: functional, organism-based
[19] = system: Human alphaherpesvirus 3; test: Antiviral activity against Varicella zoster virus; assay type: functional, organism-based
[20] = system: SARS-CoV; test: Antiviral activity against SARS coronavirus; assay type: functional, organism-based; details: Severe acute respiratory syndrome-related coronavirus
[21] = system: Influenza A virus; test: Antiviral activity against Influenza A virus H1N1; assay type: functional, organism-based
[22] = system: Influenza A virus; test: Antiviral activity against Influenza A virus H3N2; assay type: functional, organism-based
[23] = system: Influenza A virus; test: Antiviral activity against Influenza A virus H5N1; assay type: functional, organism-based
[24] = system: Venezuelan equine encephalitis virus; test: Antiviral activity against Venezuelan equine encephalitis virus; assay type: functional, organism-based
[25] = system: West Nile virus; test: Antiviral activity against West Nile virus; assay type: functional, organism-based
[26] = system: Enterovirus; test: Antiviral activity against Rhinovirus; assay type: functional, organism-based
[27] = system: Yellow fever virus; test: Antiviral activity against Yellow fever virus; assay type: functional, organism-based
[28] = system: Human respirovirus 3; test: Antiviral activity against Human parainfluenza virus 3; assay type: functional, organism-based
[29] = Selectivity index, ratio of CC50 for human HuH7 cells to EC50 for HCV 1b; set-up: species or system Huh-7
[30] = system: Measles morbillivirus; test: Antiviral activity against Measles virus infected in human HuH7 cells assessed as reduction of viral level by visual assay; assay type: functional, organism-based; details: Huh-7

What does the source list for C[C@@]1(O)[C@H](O)[C@@H](CO)O[C@H]1n1ccc(N)nc1=O?
EC50 [1]: 1700 nM; EC90 [1]: 8200 nM; CC50 at 120 h [2]: > 300000 nM; Ratio CC50/EC50 [3]: >272

With Nc1ncnc2c1ncn2[C@H]1[C@H](O)[C@H](O)[C@@H](CO)C12CC2 as the molecule, how does the EC50 [1] read?
Its EC50 is 273 nM.

And the EC90 [1]?
Its EC90 is 3000 nM.

And the EC50 [4]?
Its EC50 is 368 nM.

What about the EC90 [4] of the same molecule?
Its EC90 is 1200 nM.

What about the CC50 at 120 h [2] of the same molecule?
The CC50 at 120 h was > 100000 nM.

And the “Ratio CC50/EC50” value [3]?
Its value is >366.

What about the EC50 [5] of the same molecule?
The EC50 was 42700 nM.

And the EC50 [6]?
The EC50 was 9000 nM.

And the EC50 [7]?
Its EC50 is 3000 nM.

And the EC50 [8]?
The EC50 was 3000 nM.

And the selectivity ratio [9]?
Its selectivity ratio is > 7.1.

What about the selectivity ratio [10] of the same molecule?
Its selectivity ratio is 5.

What about the selectivity ratio [11] of the same molecule?
The selectivity ratio was 2.

And the selectivity ratio [12]?
The selectivity ratio was 4.

And the selectivity ratio [13]?
Its selectivity ratio is 3.

What about the CC50 [14] of the same molecule?
Its CC50 is > 10000 nM.

And the Activity [15]?
The Activity was “inactive”.

What about the Activity [16] of the same molecule?
Its Activity is “inactive”.

What about the Activity [17] of the same molecule?
The Activity was “inactive”.

And the Activity [18]?
Its Activity is “inactive”.

What about the Activity [19] of the same molecule?
The Activity was “inactive”.

What about the Activity [20] of the same molecule?
The Activity was “inactive”.

And the Activity [21]?
Its Activity is “inactive”.

And the Activity [22]?
The Activity was “inactive”.

What about the Activity [23] of the same molecule?
Its Activity is “inactive”.

What about the Activity [24] of the same molecule?
Its Activity is “inactive”.

And the Activity [25]?
Its Activity is “inactive”.

And the Activity [26]?
Its Activity is “inactive”.

What about the Activity [27] of the same molecule?
The Activity was “inactive”.

What about the Activity [28] of the same molecule?
The Activity was “inactive”.

What about the “Ratio CC50/EC50” value [29] of the same molecule?
Its value is >272.

And the EC50 [30]?
The EC50 was 7000 nM.
